According to the NIST ThermoML archive (doi:10.1021/je400529k):

Key:
[1] = xn = mol fraction of the nth substance listed; conditions: 101 kPa, Liquid; for viscosity: Capillary tube (Ostwald / Ubbelohde) method; for mass density: Vibrating tube method
[2] = refractive index (Na D-line) (dimensionless); xn = mol fraction of the nth substance listed; conditions: 101 kPa, Liquid, Standard Abbe refractometry

C1C[C@@H]2[C@H]3CC[C@H](C3)[C@@H]2C1 [exo-tetrahydrodicyclopentadiene] + CC1CCCCC1
Conditions	mass density, [1] [kg/m3]	refractive index, [2]	viscosity, [1] [mPa·s]
293.15 K, x1 = 0.1	788.79	1.4298	0.842
293.15 K, x1 = 0.2009	807.71	1.4376	0.959
293.15 K, x1 = 0.301	825.81	1.4447	1.102
293.15 K, x1 = 0.3999	843.02	1.4515	1.267
293.15 K, x1 = 0.4999	859.94	1.4586	1.454
293.15 K, x1 = 0.5992	876.09	1.4646	1.67
293.15 K, x1 = 0.7004	891.98	1.4709	1.925
293.15 K, x1 = 0.7995	906.95	1.4768	2.22
293.15 K, x1 = 0.9011	921.82	1.482	2.582
293.15 K, x1 = 1	935.72	1.4874	2.992
298.15 K, x1 = 0.1	784.53	–	0.785
298.15 K, x1 = 0.2009	803.5	–	0.892
298.15 K, x1 = 0.301	821.64	–	1.023
298.15 K, x1 = 0.3999	838.89	–	1.171
298.15 K, x1 = 0.4999	855.86	–	1.34
298.15 K, x1 = 0.5992	872.05	–	1.534
298.15 K, x1 = 0.7004	887.96	–	1.762
298.15 K, x1 = 0.7995	902.99	–	2.026
298.15 K, x1 = 0.9011	917.88	–	2.347
298.15 K, x1 = 1	931.84	–	2.71
303.15 K, x1 = 0.1	780.25	1.4253	0.735
303.15 K, x1 = 0.2009	799.26	1.4324	0.833
303.15 K, x1 = 0.301	817.46	1.4402	0.952
303.15 K, x1 = 0.3999	834.75	1.4472	1.087
303.15 K, x1 = 0.4999	851.75	1.4539	1.239
303.15 K, x1 = 0.5992	867.99	1.4599	1.416
303.15 K, x1 = 0.7004	883.94	1.4662	1.621
303.15 K, x1 = 0.7995	899.01	1.4722	1.857
303.15 K, x1 = 0.9011	913.94	1.478	2.146
303.15 K, x1 = 1	927.94	1.4831	2.467
308.15 K, x1 = 0.1	775.95	–	0.692
308.15 K, x1 = 0.2009	795.01	–	0.781
308.15 K, x1 = 0.301	813.26	–	0.89
308.15 K, x1 = 0.3999	830.6	–	1.013
308.15 K, x1 = 0.4999	847.64	–	1.151
308.15 K, x1 = 0.5992	863.93	–	1.312
308.15 K, x1 = 0.7004	879.91	–	1.497
308.15 K, x1 = 0.7995	895.01	–	1.709
308.15 K, x1 = 0.9011	910	–	1.967
308.15 K, x1 = 1	924.02	–	2.255
313.15 K, x1 = 0.1	771.64	1.4198	0.652
313.15 K, x1 = 0.2009	790.75	1.4276	0.733
313.15 K, x1 = 0.301	809.05	1.4351	0.834
313.15 K, x1 = 0.3999	826.43	1.4421	0.947
313.15 K, x1 = 0.4999	843.53	1.449	1.074
313.15 K, x1 = 0.5992	859.84	1.4549	1.218
313.15 K, x1 = 0.7004	875.88	1.4617	1.388
313.15 K, x1 = 0.7995	891.03	1.4672	1.579
313.15 K, x1 = 0.9011	906.04	1.4732	1.81
313.15 K, x1 = 1	920.11	1.4786	2.069
318.15 K, x1 = 0.1	767.31	–	0.616
318.15 K, x1 = 0.2009	786.48	–	0.691
318.15 K, x1 = 0.301	804.83	–	0.783
318.15 K, x1 = 0.3999	822.26	–	0.887
318.15 K, x1 = 0.4999	839.4	–	1.003
318.15 K, x1 = 0.5992	855.75	–	1.135
318.15 K, x1 = 0.7004	871.84	–	1.29
318.15 K, x1 = 0.7995	887.03	–	1.463
318.15 K, x1 = 0.9011	902.08	–	1.672
318.15 K, x1 = 1	916.18	–	1.907
